Measured values taken from ChEMBL document CHEMBL1152062, “Novel 4,5,6,7-tetrahydrobenzothiazole dopamine agonists display very low stereoselectivity in their interaction with dopamine receptors” (Bioorg Med Chem Lett, 1991).

Experiments:
[1] = target: T1, D(2) dopamine receptor (Rattus norvegicus, UniProt P61169); experiment: Affinity of the Compound for Dopamine receptor D2 in rat striatal membrane was determined in vitro using Dopamine Antagonist [3H]spiperone as ligand; Value ranges from (580-1050); assay type: cell membranes, Striatum
T1 sequence (P61169 whole entry): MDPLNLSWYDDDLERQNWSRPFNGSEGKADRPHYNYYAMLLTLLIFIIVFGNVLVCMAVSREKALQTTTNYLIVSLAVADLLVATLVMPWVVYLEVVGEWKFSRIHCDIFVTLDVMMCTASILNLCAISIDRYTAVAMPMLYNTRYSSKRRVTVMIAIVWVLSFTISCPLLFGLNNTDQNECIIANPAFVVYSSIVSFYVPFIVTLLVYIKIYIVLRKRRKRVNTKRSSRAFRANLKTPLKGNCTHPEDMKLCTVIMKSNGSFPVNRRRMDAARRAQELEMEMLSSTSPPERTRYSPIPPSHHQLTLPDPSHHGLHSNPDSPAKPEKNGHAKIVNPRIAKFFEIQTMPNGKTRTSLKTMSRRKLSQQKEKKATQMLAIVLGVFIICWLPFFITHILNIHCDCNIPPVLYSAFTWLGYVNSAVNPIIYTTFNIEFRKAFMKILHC

[2] = target: T1, D(2) dopamine receptor; experiment: Affinity of the Compound for Dopamine receptor D2 in rat striatal membrane was determined in vitro using Dopamine agonist [3H]N-propylnorapomorphine as ligand; Value ranges from (204-360); assay type: cell membranes, Striatum
[3] = target: D(1A) dopamine receptor (Rattus norvegicus, UniProt P18901); experiment: Affinity of the Compound for Dopamine D1 receptor in rat striatal membrane was determined in vitro using Dopamine Antagonist [3H]SCH-23390 as ligand.; assay type: cell membranes, Striatum
Sequence of D(1A) dopamine receptor (P18901 whole entry): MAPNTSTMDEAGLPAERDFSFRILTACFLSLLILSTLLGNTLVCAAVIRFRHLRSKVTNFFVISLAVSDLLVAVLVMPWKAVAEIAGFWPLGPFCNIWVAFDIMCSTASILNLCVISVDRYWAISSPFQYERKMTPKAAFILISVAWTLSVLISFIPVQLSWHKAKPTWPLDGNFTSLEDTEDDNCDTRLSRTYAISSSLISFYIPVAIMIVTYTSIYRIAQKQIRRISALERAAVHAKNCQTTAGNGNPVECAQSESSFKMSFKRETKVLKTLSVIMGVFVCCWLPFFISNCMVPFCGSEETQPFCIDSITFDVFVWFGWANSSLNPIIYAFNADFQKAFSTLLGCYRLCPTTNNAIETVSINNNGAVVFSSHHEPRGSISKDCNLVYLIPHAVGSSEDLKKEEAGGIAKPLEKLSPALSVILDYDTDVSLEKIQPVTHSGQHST

[4] = system: Rattus norvegicus; experiment: Dose required to inhibit the synthesis of DOPA in rat brain was determined intraperitoneally; assay type: functional; conditions: ip
[5] = system: Rattus norvegicus; experiment: Percent inhibition of spontaneous DA neuronal firing in the substantia nigra of anesthetized rats was determined.; assay type: functional
[6] = target: T1, D(2) dopamine receptor; experiment: Affinity of the Compound for Dopamine receptor D2 in rat striatal membrane was determined in vitro using Dopamine Antagonist [3H]spiperone as ligand; Value ranges from (270-500); assay type: cell membranes, Striatum
[7] = target: T1, D(2) dopamine receptor; experiment: Affinity of the Compound for Dopamine receptor D2 in rat striatal membrane was determined in vitro using Dopamine agonist [3H]N-propylnorapomorphine as ligand; Value ranges from (70-150); assay type: cell membranes, Striatum
[8] = system: Rattus norvegicus; experiment: Percent reversal of the increase in rat striatum DOPA accumulation produced by pretreatment with GBL (750 mg/kg ip) and NSD 1015 (100 mg/kg) when 2 mg/kg was administered.; assay type: functional
[9] = target: T1, D(2) dopamine receptor; experiment: Affinity of the Compound for Dopamine receptor D2 in rat striatal membrane was determined in vitro using Dopamine Antagonist [3H]spiperone as ligand; Value ranges from (124-550); assay type: cell membranes, Striatum
[10] = target: T1, D(2) dopamine receptor; experiment: Affinity of the Compound for Dopamine receptor D2 in rat striatal membrane was determined in vitro using Dopamine agonist [3H]N-propylnorapomorphine as ligand; Value ranges from (80-119); assay type: cell membranes, Striatum

| IC50 [1] | IC50 [2] | IC50 [3] | IC50 [6] | IC50 [7] | IC50 [9] | IC50 [10] | SMILES | ED50 [4] | Inhibition [5] | Reversal [8] |
| --- | --- | --- | --- | --- | --- | --- | --- | --- | --- | --- |
| 800 nM | 280 nM | > 15000 nM |  |  |  |  | Nc1nc2c(s1)C[C@@H](N1CCN(c3ccccn3)CC1)CC2 | 4.8 mg/kg | 100% |  |
|  |  | > 15000 nM | 440 nM | 105 nM |  |  | Nc1nc2c(s1)C[C@H](N1CCN(c3ccccn3)CC1)CC2 | 7 mg/kg | 85% |  |
|  |  |  |  |  |  |  | CN1CCc2cccc3c2[C@H]1Cc1ccc(O)c(O)c1-3 [APOMORPHINE] |  | 100% | 100% |
|  |  | > 15000 nM |  |  | 320 nM | 100 nM | Nc1nc2c(s1)CC(N1CCN(c3ccccn3)CC1)CC2 (racemic) | 4.4 mg/kg | 97% |  |
